Where no end group is shown, it is not given here.
Test system: hMSCs
Assay: Loss of stemness: STRO-1 expression by immunostaining
Type: cell-based, human
Outline: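 hMSCs cultured on plastic with GFR-binding peptides in solution (some sequences tested with a bioactive carrier), then fixed, permeabilized and immunostained for Stro-1. Stro-1-positive contact number and area quantified by thresholded image analysis, minimum 30 cells per condition.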

[1] = Table 8, SEQ ID NO: 2242 to 2267 tested in solution
[2] = Table 6, previously reported peptides in solution, 400 ng/mL
[3] = Table 8, SEQ ID NO: 1 to 49 tested in combination with a bioactive carrier (titanium, ceramics, collagen, etc.)

| Substance | STRO-1 expression (%) [2] [%] | STRO-1 expression (%) [3] [%] | also measured |
| --- | --- | --- | --- |
| 2262 (HVTKPTSVPTKLSPISILFIDDSSNVIYKQYENMVVESSGSH; GFR-binding peptide) [compound 2262] | – | – | STRO-1 expression (%) [1]: 18% |
| 2173 (TKPLSSLLFPNWNTTTTPTPPRP; Peptide reported in WO2013040142, SEQ ID NO:866827) [compound 2173] | 91 | – | – |
| 2197 (LSLLAPPEPVWNHETSYGSDCHVPTNVNAISKMIDKSNHQTG; Peptide reported in US20140130203, SEQ ID NO:119179) [compound 2197] | 93 | – | – |
| 2168 (MSRVLFEPLTFLQTGSGLPDEKTLG; Peptide reported in US20080081768, SEQ ID NO:28800) [compound 2168] | 94 | – | – |
| 2202 (CPKPSSAPTELSAISMLL; Peptide reported in WO2009151288, SEQ ID NO:3) [compound 2202] | 79 | – | – |
| 2 (CKVGKASSVPTKLSAISTLYLDDMGVPTLKNYQNMVVRASGSH; not fully specified; ends and bridges not checked) [compound 2] | – | 21 | – |
| 36 (CKIPKASSVPTELEPLPIVYYVGRKPKVEQLSNMIVRS; not fully specified; ends and bridges not checked) [compound 36] | – | 19 | – |
| 13 (CSIPKASSVPTELSATSVLYYDEYDEKVVLRKHEMVVEG; not fully specified; ends and bridges not checked) [compound 13] | – | 23 | – |
| 18 (CKVGKASSVPTKLNAISTLYLDENEKVVLKKYREGMS; not fully specified; ends and bridges not checked) [compound 18] | – | 19 | – |
| 2258 (SRVLLRPVQMRKIDKGVVTYKKATVLLEEH; GFR-binding peptide) [compound 2258] | – | – | STRO-1 expression (%) [1]: 21% |
| 2184 (SATSRLALSDVPAELAA; Peptide reported in WO2013040142, SEQ ID NO:729730) [compound 2184] | 98 | – | – |
| 14 (CAPTKLSAISMLYLDSSNNVILKNYQ; GFR-binding peptide) [compound 14] | – | 16 | – |
| 2188 (SSVPAVCSATSATGPYSSGSVEVTFDVYATTVY; Peptide reported in EP1687419, SEQ ID NO:45) [compound 2188] | 92 | – | – |
| 2267 (ASASPSSVSQDLRSVKVAKVIGKTPKIKEVQVMIVKSSKSS; GFR-binding peptide) [compound 2267] | – | – | STRO-1 expression (%) [1]: 34% |
| 34 (GTPGPRNVQCRPTQVQLSAISTLYLEIVRKKPLKNYQTLEDH; GFR-binding peptide) [compound 34] | – | 18 | – |
| 2256 (VPTDDSATSTLYYDKGVVTYLRKHRDDEHS; GFR-binding peptide) [compound 2256] | – | – | STRO-1 expression (%) [1]: 27% |
| 2248 (VPTAAEPISMLYLDEYDKVVKFKYEAAAVS; GFR-binding peptide) [compound 2248] | – | – | STRO-1 expression (%) [1]: 26% |
| 16 (CKASSVPTELSPISTLYKDENEKVVLKYHYDMVVEGSGSR; not fully specified; ends and bridges not checked) [compound 16] | – | 18 | – |
| 2265 (AVPKASSVPQKLEPLTILYYDSSNNVIEQLSNNMVKSASGSH; GFR-binding peptide) [compound 2265] | – | – | STRO-1 expression (%) [1]: 21% |
| 21 (CGGGSSVPTELSAISTLYLDDYDKVILKKYRNM; GFR-binding peptide) [compound 21] | – | 14 | – |
| 2166 (NEVLRFCGIQVPEGDEPLT; Peptide reported in WO2013040142, SEQ ID NO:101213) [compound 2166] | 98 | – | – |
| 2191 (ANINKDRDNVPAATSSLSKAYNP; Peptide reported in WO2013040142, SEQ ID NO:2326359) [compound 2191] | 92 | – | – |
| 2193 (DKPEESSSTPTHAQCICSSLSEAIVSSVLSTRLVLSQISLTRAKRAFE; Peptide reported in US20130333061, SEQ ID NO:139889) [compound 2193] | 87 | – | – |
| 2266 (RVPSTSSAPVKTSNITMQIMDNGRVLLLGEMSMIVEESGSL; GFR-binding peptide) [compound 2266] | – | – | STRO-1 expression (%) [1]: 22% |
| 15 (CASSAVSQELSAISMLYLGGGLKNYQDM; GFR-binding peptide) [compound 15] | – | 21 | – |
| 49 (CTVPKPXXAPTQLSPISILYIDAANNVVYKQYEDMVVRA; GFR-binding peptide; MOD_RES (7), (8): Xaa is C or S) [compound 49] | – | 18 | – |
